Results taken from ChEMBL document CHEMBL3885881, “DrugMatrix”.

Species: Rattus norvegicus
Test: DrugMatrix - Regimen: Daily Repeat
Assay type: toxicity, organism-based, Sprague-Dawley
Design: regimen Daily Repeat, gender Male, age 6-8 weeks
Conditions: in vivo, po, route oral GAVAGE, vehicle 100 % WATER; for ABSOLUTE BASOPHIL / ABSOLUTE EOSINOPHIL / ABSOLUTE LYMPHOCYTE / ABSOLUTE MONOCYTE / ABSOLUTE SEGMENTED NEUTROPHIL / BASOPHIL / EOSINOPHIL / ERYTHROCYTE COUNT / HEMATOCRIT / HEMOGLOBIN / LEUKOCYTE COUNT / LYMPHOCYTE / MEAN CORPUSCULAR HEMOGLOBIN / MEAN CORPUSCULAR HEMOGLOBIN CONCENTRATION / MEAN CORPUSCULAR VOLUME / MONOCYTE / NEUTROPHIL / NUCLEATED RED BLOOD CELLS / PLATELET COUNT: tissue Blood; for ALANINE AMINOTRANSFERASE / ALKALINE PHOSPHATASE / ASPARTATE AMINOTRANSFERASE / BLOOD UREA NITROGEN / CARBON DIOXIDE / CHLORIDE / CHOLESTEROL / CREATINE PHOSPHOKINASE / CREATININE / GLUCOSE / LACTATE DEHYDROGENASE / LIPASE / PHOSPHORUS / POTASSIUM / SODIUM / TOTAL BILIRUBIN / TOTAL PROTEIN / URIC ACID: tissue Plasma
[1] = 0 mg/kg, 72 h, dose level Control, time 3 day
[2] = 0 mg/kg, 120 h, dose level Control, time 5 day
[3] = 10 mg/kg, 72 h, dose level Low, time 3 day
[4] = 10 mg/kg, 120 h, dose level Low, time 5 day

Cn1c(=O)c2[nH]cnc2n(C)c1=O.O [THEOPHYLLINE]
ABSOLUTE BASOPHIL [1]: 0 CELLS/uL | ABSOLUTE EOSINOPHIL [1]: 168.33 CELLS/uL | ABSOLUTE LYMPHOCYTE [1]: 13654.17 CELLS/uL | ABSOLUTE MONOCYTE [1]: 121 CELLS/uL | ABSOLUTE SEGMENTED NEUTROPHIL [1]: 1223.17 CELLS/uL | BASOPHIL [1]: 0% | EOSINOPHIL [1]: 1.17% | ERYTHROCYTE COUNT [1]: 5.7 x10E6/uL | HEMATOCRIT [1]: 35.33% | HEMOGLOBIN [1]: 13.97 G/DL | LEUKOCYTE COUNT [1]: 15.17 x10E3/uL | LYMPHOCYTE [1]: 89.83% | MEAN CORPUSCULAR HEMOGLOBIN [1]: 24.53 pg | MEAN CORPUSCULAR HEMOGLOBIN CONCENTRATION [1]: 39.53 G/DL | MEAN CORPUSCULAR VOLUME [1]: 62.05 fL | MONOCYTE [1]: 0.83% | NEUTROPHIL [1]: 8.17% | NUCLEATED RED BLOOD CELLS [1]: 0 /100WBC | PLATELET COUNT [1]: 1312.17 x10E3/uL | ALANINE AMINOTRANSFERASE [1]: 50.83 u/L | ALKALINE PHOSPHATASE [1]: 334.17 u/L | ASPARTATE AMINOTRANSFERASE [1]: 82.17 u/L | BLOOD UREA NITROGEN [1]: 15.5 mg/dL | CARBON DIOXIDE [1]: 31.33 mmol/L | CHLORIDE [1]: 99.83 MEQ/L | CHOLESTEROL [1]: 76 mg/dL | CREATINE PHOSPHOKINASE [1]: 272.17 u/L | CREATININE [1]: 0.17 mg/dL | GLUCOSE [1]: 143 mg/dL | LACTATE DEHYDROGENASE [1]: 157.5 u/L | LIPASE [1]: 9.33 u/L | PHOSPHORUS [1]: 12.18 mg/dL | POTASSIUM [1]: 6.78 MEQ/L | SODIUM [1]: 143.9 MEQ/L | TOTAL BILIRUBIN [1]: 0.22 mg/dL | TOTAL PROTEIN [1]: 5.85 G/DL | URIC ACID [1]: 1.7 mg/dL | ABSOLUTE BASOPHIL [2]: 0 CELLS/uL | ABSOLUTE EOSINOPHIL [2]: 0 CELLS/uL | ABSOLUTE LYMPHOCYTE [2]: 13539.33 CELLS/uL | ABSOLUTE MONOCYTE [2]: 177.67 CELLS/uL | ABSOLUTE SEGMENTED NEUTROPHIL [2]: 2116.33 CELLS/uL | BASOPHIL [2]: 0% | EOSINOPHIL [2]: 0% | ERYTHROCYTE COUNT [2]: 5.78 x10E6/uL | HEMATOCRIT [2]: 36.13% | HEMOGLOBIN [2]: 14.1 G/DL | LEUKOCYTE COUNT [2]: 15.83 x10E3/uL | LYMPHOCYTE [2]: 85.83% | MEAN CORPUSCULAR HEMOGLOBIN [2]: 24.42 pg | MEAN CORPUSCULAR HEMOGLOBIN CONCENTRATION [2]: 39 G/DL | MEAN CORPUSCULAR VOLUME [2]: 62.55 fL | MONOCYTE [2]: 0.83% | NEUTROPHIL [2]: 13.33% | NUCLEATED RED BLOOD CELLS [2]: 0.17 /100WBC | PLATELET COUNT [2]: 1281.17 x10E3/uL | ALANINE AMINOTRANSFERASE [2]: 55.5 u/L | ALKALINE PHOSPHATASE [2]: 345 u/L | ASPARTATE AMINOTRANSFERASE [2]: 92.5 u/L | BLOOD UREA NITROGEN [2]: 16.5 mg/dL | CARBON DIOXIDE [2]: 26.5 mmol/L | CHLORIDE [2]: 103.5 MEQ/L | CHOLESTEROL [2]: 78.5 mg/dL | CREATINE PHOSPHOKINASE [2]: 381.5 u/L | CREATININE [2]: 0.21 mg/dL | GLUCOSE [2]: 161.83 mg/dL | LACTATE DEHYDROGENASE [2]: 487.5 u/L | LIPASE [2]: 10.17 u/L | PHOSPHORUS [2]: 11.83 mg/dL | POTASSIUM [2]: 6.4 MEQ/L | SODIUM [2]: 146.95 MEQ/L | TOTAL BILIRUBIN [2]: 0.22 mg/dL | TOTAL PROTEIN [2]: 6.22 G/DL | URIC ACID [2]: 1.83 mg/dL | ABSOLUTE BASOPHIL [3]: 0 CELLS/uL | ABSOLUTE EOSINOPHIL [3]: 319 CELLS/uL | ABSOLUTE LYMPHOCYTE [3]: 14175 CELLS/uL | ABSOLUTE MONOCYTE [3]: 161.67 CELLS/uL | ABSOLUTE SEGMENTED NEUTROPHIL [3]: 1511 CELLS/uL | BASOPHIL [3]: 0% | EOSINOPHIL [3]: 2% | ERYTHROCYTE COUNT [3]: 5.5 x10E6/uL | HEMATOCRIT [3]: 34.43% | HEMOGLOBIN [3]: 13.03 G/DL | LEUKOCYTE COUNT [3]: 16.17 x10E3/uL | LYMPHOCYTE [3]: 87.67% | MEAN CORPUSCULAR HEMOGLOBIN [3]: 23.7 pg | MEAN CORPUSCULAR HEMOGLOBIN CONCENTRATION [3]: 37.87 G/DL | MEAN CORPUSCULAR VOLUME [3]: 62.57 fL | MONOCYTE [3]: 1% | NEUTROPHIL [3]: 9.33% | NUCLEATED RED BLOOD CELLS [3]: 0 /100WBC | PLATELET COUNT [3]: 1231 x10E3/uL | ALANINE AMINOTRANSFERASE [3]: 51.33 u/L | ALKALINE PHOSPHATASE [3]: 320.67 u/L | ASPARTATE AMINOTRANSFERASE [3]: 113 u/L | BLOOD UREA NITROGEN [3]: 12.33 mg/dL | CARBON DIOXIDE [3]: 28.33 mmol/L | CHLORIDE [3]: 101.33 MEQ/L | CHOLESTEROL [3]: 94 mg/dL | CREATINE PHOSPHOKINASE [3]: 788.33 u/L | CREATININE [3]: 0.2 mg/dL | GLUCOSE [3]: 138.33 mg/dL | LACTATE DEHYDROGENASE [3]: 1127.33 u/L | LIPASE [3]: 9.67 u/L | PHOSPHORUS [3]: 11.8 mg/dL | POTASSIUM [3]: 6.43 MEQ/L | SODIUM [3]: 144.43 MEQ/L | TOTAL BILIRUBIN [3]: 0.2 mg/dL | TOTAL PROTEIN [3]: 5.7 G/DL | URIC ACID [3]: 1.63 mg/dL | ABSOLUTE BASOPHIL [4]: 0 CELLS/uL | ABSOLUTE EOSINOPHIL [4]: 162 CELLS/uL | ABSOLUTE LYMPHOCYTE [4]: 12014 CELLS/uL | ABSOLUTE MONOCYTE [4]: 120 CELLS/uL | ABSOLUTE SEGMENTED NEUTROPHIL [4]: 1804 CELLS/uL | BASOPHIL [4]: 0% | EOSINOPHIL [4]: 1% | ERYTHROCYTE COUNT [4]: 5.5 x10E6/uL | HEMATOCRIT [4]: 34.77% | HEMOGLOBIN [4]: 13.6 G/DL | LEUKOCYTE COUNT [4]: 14.1 x10E3/uL | LYMPHOCYTE [4]: 85.67% | MEAN CORPUSCULAR HEMOGLOBIN [4]: 24.7 pg | MEAN CORPUSCULAR HEMOGLOBIN CONCENTRATION [4]: 39.13 G/DL | MEAN CORPUSCULAR VOLUME [4]: 63.2 fL | MONOCYTE [4]: 1% | NEUTROPHIL [4]: 12.33% | NUCLEATED RED BLOOD CELLS [4]: 0 /100WBC | PLATELET COUNT [4]: 1229 x10E3/uL | ALANINE AMINOTRANSFERASE [4]: 56 u/L | ALKALINE PHOSPHATASE [4]: 334.33 u/L | ASPARTATE AMINOTRANSFERASE [4]: 113.67 u/L | BLOOD UREA NITROGEN [4]: 15 mg/dL | CARBON DIOXIDE [4]: 23.33 mmol/L | CHLORIDE [4]: 103.33 MEQ/L | CHOLESTEROL [4]: 77.33 mg/dL | CREATINE PHOSPHOKINASE [4]: 1028.67 u/L | CREATININE [4]: 0.23 mg/dL | GLUCOSE [4]: 151.33 mg/dL | LACTATE DEHYDROGENASE [4]: 644.67 u/L | LIPASE [4]: 9 u/L | PHOSPHORUS [4]: 11.9 mg/dL | POTASSIUM [4]: 5.95 MEQ/L | SODIUM [4]: 143.77 MEQ/L | TOTAL BILIRUBIN [4]: 0.2 mg/dL | TOTAL PROTEIN [4]: 5.97 G/DL | URIC ACID [4]: 1.33 mg/dL
